Drawing on patent publication US9493446B2, “Orexin receptor antagonists which are [ortho bi-(hetero-)aryl]-[2-(meta bi-(hetero-)aryl)-pyrrolidin-1-yl]-methanone derivatives” (Actelion Pharmaceuticals Ltd, priority 2012, dated 2016), this text covers IC50 for 31 compounds.

The term pIC50 denotes −log10 of the IC50, conventionally taken in molar units.

One assay concerns the target orexin-1 (Homo sapiens (Human), UniProt O43613). Nature of the assay: Intracellular calcium measurement (FLIPR), CHO cells expressing human orexin-1 receptor, 3 nM orexin-A. It is filed as cell-based. The conditions noted are these: read-out: IC50 OX1. Put shortly:
(§1)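 Antagonist is added 120 min before agonist. Fluo-4 AM-loaded CHO cells carry human orexin-1 or orexin-2 receptor, and calcium is read by FLIPR.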

The target in the next assay is human orexin-2 receptor (Homo sapiens (Human), UniProt O43614). Nature of the assay: Intracellular calcium measurement (FLIPR), CHO cells expressing human orexin-2 receptor, 3 nM orexin-A. It counts as cell-based. The conditions noted are these: read-out: IC50 OX2. Put shortly:
as §1
Background: A change in cytosolic calcium serves as a functional read-out for many receptors and channels.

Setting [1] is: CHO cells expressing human orexin-1 receptor, FLIPR, 3 nM orexin-A, geometric mean if determined several times.
Where [2] appears, read: CHO cells expressing human orexin-2 receptor, FLIPR, 3 nM orexin-A, geometric mean if determined several times.

pIC50: −log10 of the molar value. Like-named read-outs stand apart in the source and are kept apart here. Bounds are passed on as bounds.

orexin-1, sequence (O43613 whole entry): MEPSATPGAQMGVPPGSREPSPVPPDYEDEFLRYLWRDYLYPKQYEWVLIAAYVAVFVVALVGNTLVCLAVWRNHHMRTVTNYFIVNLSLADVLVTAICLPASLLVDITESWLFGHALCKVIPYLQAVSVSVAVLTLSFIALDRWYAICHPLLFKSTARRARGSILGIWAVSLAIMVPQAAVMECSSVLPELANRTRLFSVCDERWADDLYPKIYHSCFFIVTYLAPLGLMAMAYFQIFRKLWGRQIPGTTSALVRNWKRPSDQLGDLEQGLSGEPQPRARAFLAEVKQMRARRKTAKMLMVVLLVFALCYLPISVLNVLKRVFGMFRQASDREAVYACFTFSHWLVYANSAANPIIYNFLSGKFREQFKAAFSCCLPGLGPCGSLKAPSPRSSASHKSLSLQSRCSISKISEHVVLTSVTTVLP
human orexin-2 receptor, sequence (O43614 whole entry): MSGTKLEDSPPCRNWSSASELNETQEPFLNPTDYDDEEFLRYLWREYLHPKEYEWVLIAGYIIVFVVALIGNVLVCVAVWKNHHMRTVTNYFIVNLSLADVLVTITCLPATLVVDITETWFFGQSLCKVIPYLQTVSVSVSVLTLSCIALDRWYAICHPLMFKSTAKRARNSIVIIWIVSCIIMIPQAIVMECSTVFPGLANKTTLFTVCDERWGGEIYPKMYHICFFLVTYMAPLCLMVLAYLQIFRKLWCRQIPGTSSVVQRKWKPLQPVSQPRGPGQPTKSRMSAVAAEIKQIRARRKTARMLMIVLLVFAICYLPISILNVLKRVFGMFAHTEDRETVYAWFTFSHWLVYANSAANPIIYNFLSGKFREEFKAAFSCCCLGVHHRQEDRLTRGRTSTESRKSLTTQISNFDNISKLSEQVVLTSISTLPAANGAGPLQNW

For the compound `Cc1ccc(-n2nccn2)c(C(=O)N2CCC[C@H]2c2nc(-c3c(C)cccc3Cl)no2)c1` [compound 24], the pIC50 at orexin-1 (setting [1]) was 6.33; at human orexin-2 receptor (setting [2]), 6.98.
For `O=C(c1cc(F)ccc1-c1ccn[nH]1)N1CCC[C@H]1c1nc(-c2ccccc2OC(F)(F)F)no1` [compound 167, [5-Fluoro-2-(2H-pyrazol-3-yl)-phenyl]-{(S)-2-[3-(2-trifluoromethoxy-phenyl)-[1,2,4]oxadiazol-5-yl]-pyrrolidin-1-yl}-methanone], in that order: 6.94 and 7.37.
Consider `CCOc1ncccc1-c1noc([C@@H]2CCCN2C(=O)c2nc(C)ccc2-n2nccn2)n1` [compound 213, {(S)-2-[3-(2-Ethoxy-pyridin-3-yl)-[1,2,4]oxadiazol-5-yl]-pyrrolidin-1-yl}-(6-methyl-3-[1,2,3]triazol-2-yl-pyridin-2-yl)-methanone], for which the pIC50 on orexin-1 (setting [1]) was 6.77; at human orexin-2 receptor (setting [2]), 7.34.
`CCOc1ncccc1-c1nnc([C@@H]2CCCN2C(=O)c2cc(C)ccc2-n2nccn2)o1` [Example 450, {(S)-2-[5-(2-Ethoxy-pyridin-3-yl)-[1,3,4]oxadiazol-2-yl]-pyrrolidin-1-yl}-(5-methyl-2-[1,2,3]triazol-2-yl-phenyl)-methanone]: the pIC50 at orexin-1 (setting [1]) was 6.74; at human orexin-2 receptor (setting [2]), 7.02.
For `COc1cc(C(=O)N2CCC[C@H]2c2nc(-c3cccc(F)c3OC)no2)c(-n2nccn2)cc1C` [compound 201, {(S)-2-[3-(3-Fluoro-2-methoxy-phenyl)-[1,2,4]oxadiazol-5-yl]-pyrrolidin-1-yl}-(5-methoxy-4-methyl-2-[1,2,3]triazol-2-yl-phenyl)-methanone], in that order: 7.57 and 8.70.
Take `COc1ccc(C)c(-c2nc([C@@H]3CCCN3C(=O)c3cc(OC)c(C)cc3-n3nccn3)no2)c1` [compound 386, {(S)-2-[5-(5-Methoxy-2-methyl-phenyl)-[1,2,4]oxadiazol-3-yl]-pyrrolidin-1-yl}-(5-methoxy-4-methyl-2-[1,2,3]triazol-2-yl-phenyl)-methanone]: the negative-log IC50 (pIC50) at orexin-1 (setting [1]) is 6.93; on human orexin-2 receptor (setting [2]), 8.15.
Regarding `Cc1ccc(-n2nccn2)c(C(=O)N2CCC[C@H]2c2nnc(-c3cccc(Cl)c3C)[nH]2)c1` [compound 493], the results for the negative-log IC50 (pIC50) at orexin-1 (setting [1]) and at human orexin-2 receptor were 5.94 and 7.54, respectively.
In the case of `COc1cc(C(=O)N2CCC[C@H]2c2noc(-c3cc(C)ccc3C)n2)c(-n2nccn2)cc1C` [compound 405, {(S)-2-[5-(2,5-Dimethyl-phenyl)-[1,2,4]oxadiazol-3-yl]-pyrrolidin-1-yl}-(5-methoxy-4-methyl-2-[1,2,3]triazol-2-yl-phenyl)-methanone], the values for the negative logarithm of the IC50 (pIC50) at orexin-1 (setting [1]) and at human orexin-2 receptor (setting [2]) were 7.48 and 9.00, respectively.
For `CCOc1ccccc1-c1nc([C@@H]2CCCN2C(=O)c2cc(C)ccc2-n2nccn2)no1` [compound 306, {(S)-2-[5-(2-Ethoxy-phenyl)-[1,2,4]oxadiazol-3-yl]-pyrrolidin-1-yl}-(5-methyl-2-[1,2,3]triazol-2-yl-phenyl)-methanone], in that order: 7.44 and 8.70.
For `Cc1c(F)cccc1-c1noc([C@@H]2CCCN2C(=O)c2ccc(Cl)cc2-n2nccn2)n1` [compound 294], in that order: 6.81 and 7.77.
In the case of `COc1cc(C(=O)N2CCC[C@H]2c2nc(-c3cccc(F)c3OC)no2)c(-n2nccn2)cc1F` [compound 206, {(S)-2-[3-(3-Fluoro-2-methoxy-phenyl)-[1,2,4]oxadiazol-5-yl]-pyrrolidin-1-yl}-(4-fluoro-5-methoxy-2-[1,2,3]triazol-2-yl-phenyl)-methanone], the negative-log IC50 (pIC50) at orexin-1 (setting [1]) is 6.39; at human orexin-2 receptor (setting [2]), 8.00.
For `Cc1ccc(-c2ccccc2)c(C(=O)N2CCC[C@H]2c2nc(-c3cccc(Cl)c3C)no2)c1` [compound 88], in that order: 7.31 and 7.96.
For `CCOc1ccccc1-c1cnc([C@@H]2CCCN2C(=O)c2cc(C)ccc2-n2nccn2)[nH]1` [compound 526, {(S)-2-[5-(2-Ethoxy-phenyl)-1H-imidazol-2-yl]-pyrrolidin-1-yl}-(5-methyl-2-[1,2,3]triazol-2-yl-phenyl)-methanone], in that order: 7.55 and 8.30.
As to `O=C(c1ncoc1-c1ccccc1)N1CCC[C@H]1c1nnc(-c2ccccc2OC(F)(F)F)[nH]1` [compound 484, (5-Phenyl-oxazol-4-yl)-{(S)-2-[5-(2-trifluoromethoxy-phenyl)-4H-[1,2,4]triazol-3-yl]-pyrrolidin-1-yl}-methanone], the negative-log IC50 (pIC50) at orexin-1 (setting [1]) was 5.30; on human orexin-2 receptor (setting [2]), 5.52.
Take `O=C(c1ccc(Cl)cc1-n1nccn1)N1CCC[C@H]1c1nc(-c2ccccc2OC(F)(F)F)no1` [compound 172]: the negative logarithm of the IC50 (pIC50) on orexin-1 (setting [1]) was 7.25; on human orexin-2 receptor it was 7.74.
With `COc1cc(OC)cc(-c2noc([C@@H]3CCCN3C(=O)c3cc(C)ccc3-n3nccn3)n2)c1` [compound 47, {(S)-2-[3-(3,5-Dimethoxy-phenyl)-[1,2,4]oxadiazol-5-yl]-pyrrolidin-1-yl}-(5-methyl-2-[1,2,3]triazol-2-yl-phenyl)-methanone], the negative-log IC50 (pIC50) at orexin-1 (setting [1]) is 6.50; on human orexin-2 receptor (setting [2]), 7.05.
On to `Cc1cc(-n2nccn2)c(C(=O)N2CCC[C@H]2c2noc(-c3cccc(Cl)c3C)n2)cc1Cl` [compound 371], for which the pIC50 on orexin-1 is 7.74; on human orexin-2 receptor (setting [2]) it was 8.15.
For `Cc1c(Cl)cccc1-c1noc([C@@H]2CCCN2C(=O)c2cc(OC(F)(F)F)ccc2-n2nccn2)n1` [compound 99], in that order: 6.05 and 6.21.
In the case of `Cc1ccc(-c2ncco2)c(C(=O)N2CCC[C@H]2c2nc(-c3cccc(Cl)c3C)no2)c1` [compound 131], the pIC50 is 7.35 on orexin-1 and 8.10 at human orexin-2 receptor.
Regarding `Cc1ccc(C(=O)N2CCC[C@H]2c2nc(-c3cccc(Cl)c3C)no2)c(-n2nccn2)c1` [compound 96], the pIC50 was 6.96 on orexin-1 (setting [1]) and 7.92 on human orexin-2 receptor (setting [2]).
For `Cc1cc(C(=O)N2CCC[C@@]2(C)c2nnc(-c3ccccc3OC(F)(F)F)[nH]2)c(-n2nccn2)cc1C` [compound 546, (4,5-Dimethyl-2-[1,2,3]triazol-2-yl-phenyl)-{(S)-2-methyl-2-[5-(2-trifluoromethoxy-phenyl)-4H-[1,2,4]triazol-3-yl]-pyrrolidin-1-yl}-methanone], in that order: 8.40 and 8.10.
For the compound `O=C(c1ccoc1)N1CCC[C@H]1c1nc(-c2cccc(Cl)c2)no1` [Ref 5], the pIC50 on orexin-1 (setting [1]) is < 5.07; on human orexin-2 receptor (setting [2]), < 5.00.
For `CCOc1c(F)cccc1-c1nc([C@@H]2CCCN2C(=O)c2ccc(C)cc2-n2nccn2)no1` [compound 328, {(S)-2-[5-(2-Ethoxy-3-fluoro-phenyl)-[1,2,4]oxadiazol-3-yl]-pyrrolidin-1-yl}-(4-methyl-2-[1,2,3]triazol-2-yl-phenyl)-methanone], in that order: 7.80 and 8.40.
For `CCOc1c(F)cccc1-c1nc([C@@H]2CCCN2C(=O)c2cc(OC)ccc2-n2nccn2)no1` [compound 326, {(S)-2-[5-(2-Ethoxy-3-fluoro-phenyl)-[1,2,4]oxadiazol-3-yl]-pyrrolidin-1-yl}-(5-methoxy-2-[1,2,3]triazol-2-yl-phenyl)-methanone], in that order: 7.57 and 8.52.
`COc1cc(C(=O)N2CCC[C@H]2c2nc(-c3ccccc3OC)no2)c(-n2nccn2)cc1C` [compound 231, (5-Methoxy-4-methyl-2-[1,2,3]triazol-2-yl-phenyl)-{(S)-2-[3-(2-methoxy-phenyl)-[1,2,4]oxadiazol-5-yl]-pyrrolidin-1-yl}-methanone]: the pIC50 was 7.18 at orexin-1 (setting [1]) and 7.82 on human orexin-2 receptor (setting [2]).
On to `Cc1cccc(-c2oc(C)nc2C(=O)N2CCC[C@H]2c2nc(-c3cccc(Cl)c3C)no2)c1` [compound 91], for which the pIC50 on orexin-1 (setting [1]) is 6.98; at human orexin-2 receptor (setting [2]), 7.04.
Consider `O=C(c1cccc(F)c1-c1ccn[nH]1)N1CCC[C@H]1c1nc(-c2ccccc2OC(F)F)no1` [compound 190, {(S)-2-[3-(2-Difluoromethoxy-phenyl)-[1,2,4]oxadiazol-5-yl]-pyrrolidin-1-yl}-[3-fluoro-2-(2H-pyrazol-3-yl)-phenyl]-methanone], for which the negative-log IC50 (pIC50) at orexin-1 (setting [1]) was 7.28; on human orexin-2 receptor (setting [2]), 7.85.
For `COc1ccc2[nH]cc(-c3noc([C@@H]4CCCN4C(=O)c4cc(C)ccc4-n4nccn4)n3)c2c1` [compound 42, {(S)-2-[3-(5-Methoxy-1H-indol-3-yl)-[1,2,4]oxadiazol-5-yl]-pyrrolidin-1-yl}-(5-methyl-2-[1,2,3]triazol-2-yl-phenyl)-methanone], in that order: 6.95 and 6.97.
For `COc1c(F)cccc1-c1nnc([C@@H]2CCCN2C(=O)c2cc(C)c(C)cc2-n2nccn2)[nH]1` [compound 474, (4,5-Dimethyl-2-[1,2,3]triazol-2-yl-phenyl)-{(S)-2-[5-(3-fluoro-2-methoxy-phenyl)-4H-[1,2,4]triazol-3-yl]-pyrrolidin-1-yl}-methanone], in that order: 7.80 and 8.10.
For `Cc1ccc(-n2nccn2)c(C(=O)N2CCC[C@H]2c2ncc(-c3ccccc3C(F)(F)F)[nH]2)c1` [compound 528, (5-Methyl-2-[1,2,3]triazol-2-yl-phenyl)-{(S)-2-[5-(2-trifluoromethyl-phenyl)-1H-imidazol-2-yl]-pyrrolidin-1-yl}-methanone], in that order: 6.31 and 6.93.
For `O=C(c1ccccc1-n1nccn1)N1CCC[C@H]1c1nc(-c2ccccc2OC(F)(F)F)no1` [compound 141, (2-[1,2,3]Triazol-2-yl-phenyl)-{(S)-2-[3-(2-trifluoromethoxy-phenyl)-[1,2,4]oxadiazol-5-yl]-pyrrolidin-1-yl}-methanone], the negative-log IC50 (pIC50) is 7.23 on orexin-1 (setting [1]) and 7.54 at human orexin-2 receptor (setting [2]).
